Tests used:
Assay type in all cases: functional
KM12 [1] = assay: Growth inhibition of human KM12 cells by sulforhodamine B assay
[2] = Growth inhibition of human HCC2998 cells by sulforhodamine B assay
MOLT-4 [3] = assay: Growth inhibition of human MOLT4 cells by sulforhodamine B assay
RPMI-8226 [4] = assay: Growth inhibition of human RPMI8226 cells by sulforhodamine B assay
HL-60(TB) [5] = assay: Growth inhibition of human HL-60(TB) cells by sulforhodamine B assay
IGROV-1 = assay: Growth inhibition of human IGROV1 cells assessed as cell growth at 10^-8 M by sulforhodamine B assay; details: read-out: Activity
SK-MEL-28 [6] = assay: Growth inhibition of human SK-MEL-28 cells assessed as cell growth at 10^-8 M by sulforhodamine B assay; details: read-out: Activity
SK-MEL-2 = assay: Growth inhibition of human SK-MEL-2 cells assessed as cell growth at 10^-8 M by sulforhodamine B assay; details: read-out: Activity
M14 = assay: Growth inhibition of human M14 cells assessed as cell growth at 10^-8 M by sulforhodamine B assay; details: read-out: Activity
SF-268 [7] = assay: Growth inhibition of human SF268 cells assessed as cell growth at 10^-8 M by sulforhodamine B assay; details: read-out: Activity
SW-620 [8] = assay: Growth inhibition of human SW620 cells assessed as cell growth at 10^-8 M by sulforhodamine B assay; details: read-out: Activity
RPMI-8226 [9] = assay: Growth inhibition of human RPMI8226 cells assessed as cell growth at 10^-8 M by sulforhodamine B assay; details: read-out: Activity
MOLT-4 [10] = assay: Growth inhibition of human MOLT4 cells assessed as cell growth at 10^-8 M by sulforhodamine B assay; details: read-out: Activity
HL-60(TB) [11] = assay: Growth inhibition of human HL-60(TB) cells assessed as cell growth at 10^-8 M by sulforhodamine B assay; details: read-out: Activity
SK-OV-3 = assay: Growth inhibition of human SKOV3 cells by sulforhodamine B assay
OVCAR-8 = assay: Growth inhibition of human OVCAR8 cells by sulforhodamine B assay
OVCAR-5 = assay: Growth inhibition of human OVCAR5 cells by sulforhodamine B assay
SN12C [12] = assay: Growth inhibition of human SN12C cells assessed as cell growth at 10^-4 M by sulforhodamine B assay; details: read-out: Activity
RXF 393 = assay: Growth inhibition of human RXF393 cells assessed as cell growth at 10^-4 M by sulforhodamine B assay; details: read-out: Activity
SF-295 = assay: Growth inhibition of human SF295 cells assessed as cell growth at 10^-4 M by sulforhodamine B assay; details: read-out: Activity
SW-620 [13] = assay: Growth inhibition of human SW620 cells assessed as cell growth at 10^-4 M by sulforhodamine B assay; details: read-out: Activity
KM12 [14] = assay: Growth inhibition of human KM12 cells assessed as cell growth at 10^-4 M by sulforhodamine B assay; details: read-out: Activity
NCI-H460 [15] = assay: Growth inhibition of human NCI-H460 cells assessed as cell growth at 10^-4 M by sulforhodamine B assay; details: read-out: Activity
A549 = assay: Growth inhibition of human A549/ATCC cells assessed as cell growth at 10^-4 M by sulforhodamine B assay; details: read-out: Activity
HL-60(TB) [16] = assay: Growth inhibition of human HL-60(TB) cells assessed as cell growth at 10^-4 M by sulforhodamine B assay; details: read-out: Activity
SN12C [17] = assay: Growth inhibition of human SN12C cells assessed as cell growth at 10^-6 M by sulforhodamine B assay; details: read-out: Activity
SK-MEL-28 [18] = assay: Growth inhibition of human SK-MEL-28 cells assessed as cell growth at 10^-6 M by sulforhodamine B assay; details: read-out: Activity
LOX IMVI = assay: Growth inhibition of human LOXIMVI cells assessed as cell growth at 10^-6 M by sulforhodamine B assay; details: read-out: Activity
SF-268 [19] = assay: Growth inhibition of human SF268 cells assessed as cell growth at 10^-6 M by sulforhodamine B assay; details: read-out: Activity
NCI-H23 = assay: Growth inhibition of human NCI-H23 cells assessed as cell growth at 10^-6 M by sulforhodamine B assay; details: read-out: Activity
HOP-62 = assay: Growth inhibition of human HOP62 cells assessed as cell growth at 10^-6 M by sulforhodamine B assay; details: read-out: Activity
DU-145 [20] = assay: Growth inhibition of human DU145 cells assessed as cell growth at 10^-7 M by sulforhodamine B assay; details: read-out: Activity
[21] = Growth inhibition of human NCI-ADR-RES cells assessed as cell growth at 10^-7 M by sulforhodamine B assay; details: read-out: Activity
UACC-62 = assay: Growth inhibition of human UACC62 cells assessed as cell growth at 10^-7 M by sulforhodamine B assay; details: read-out: Activity
MDA-MB-435 = assay: Growth inhibition of human MDA-MB-435 cells assessed as cell growth at 10^-7 M by sulforhodamine B assay; details: read-out: Activity
NCI-H460 [22] = assay: Growth inhibition of human NCI-H460 cells assessed as cell growth at 10^-7 M by sulforhodamine B assay; details: read-out: Activity
RPMI-8226 [23] = assay: Growth inhibition of human RPMI8226 cells assessed as cell growth at 10^-7 M by sulforhodamine B assay; details: read-out: Activity
T47D = assay: Growth inhibition of human T47D cells assessed as cell growth at 10^-8 M by sulforhodamine B assay; details: read-out: Activity
DU-145 [24] = assay: Growth inhibition of human DU145 cells assessed as cell growth at 10^-8 M by sulforhodamine B assay; details: read-out: Activity
OVCAR-4 = assay: Growth inhibition of human OVCAR4 cells assessed as cell growth at 10^-8 M by sulforhodamine B assay; details: read-out: Activity
[25] = read-out: LC50 (the source's name)
[26] = read-out: pLC50 (the source's name) (converted)

C/C=C(/C)C(=O)O[C@@H]1CC(C)(C)C[C@H]2C3=CC[C@@H]4[C@@]5(C)CCC(=O)C(C)(C)[C@@H]5CC[C@@]4(C)[C@]3(C)CC[C@@]12C(=O)O [LANTADENE A]
GI50 (KM12 [1]; read-out: GI50): 3.52 µM
LC50 (50% net cell kill) (KM12 [1]; read-out: LC50): > 100 µM
TGI (KM12 [1]; read-out: TGI): > 100 µM
GI50 (KM12 [1]; read-out: pGI50 (converted)): 3.55 µM
LC50 (50% net cell kill) (KM12 [1]; read-out: pLC50 (converted)): > 100 µM
TGI (KM12 [1]; read-out: pTGI (converted)): > 100 µM
GI50 ([2]; HCC 2998, read-out: GI50): 3.33 µM
CC50 ([2]; HCC 2998, read-out: LC50 (the source's name)): > 100 µM
TGI ([2]; HCC 2998, read-out: TGI): > 100 µM
GI50 ([2]; HCC 2998, read-out: pGI50 (converted)): 3.31 µM
CC50 ([2]; HCC 2998, read-out: pLC50 (the source's name) (converted)): > 100 µM
TGI ([2]; HCC 2998, read-out: pTGI (converted)): > 100 µM
GI50 (MOLT-4 [3]; read-out: GI50): 3.34 µM
CC50 (MOLT-4 [3]; [25]): > 100 µM
TGI (MOLT-4 [3]; read-out: TGI): > 100 µM
GI50 (MOLT-4 [3]; read-out: pGI50 (converted)): 3.31 µM
CC50 (MOLT-4 [3]; [26]): > 100 µM
TGI (MOLT-4 [3]; read-out: pTGI (converted)): > 100 µM
GI50 (RPMI-8226 [4]; read-out: GI50): 2000 nM
CC50 (RPMI-8226 [4]; [25]): > 100 µM
TGI (RPMI-8226 [4]; read-out: TGI): > 100 µM
GI50 (RPMI-8226 [4]; read-out: pGI50 (converted)): 2000 nM
CC50 (RPMI-8226 [4]; [26]): > 100 µM
TGI (RPMI-8226 [4]; read-out: pTGI (converted)): > 100 µM
GI50 (HL-60(TB) [5]; read-out: GI50): 1870 nM
CC50 (HL-60(TB) [5]; [25]): > 100 µM
TGI (HL-60(TB) [5]; read-out: TGI): 5.26 µM
GI50 (HL-60(TB) [5]; read-out: pGI50 (converted)): 1860 nM
CC50 (HL-60(TB) [5]; [26]): > 100 µM
TGI (HL-60(TB) [5]; read-out: pTGI (converted)): 5.25 µM
growth at 0.01 µM (IGROV-1): 108%
growth at 0.01 µM (SK-MEL-28 [6]): 97%
growth at 0.01 µM (SK-MEL-2): 111%
growth at 0.01 µM (M14): 96%
growth at 0.01 µM (SF-268 [7]): 100%
growth at 0.01 µM (SW-620 [8]): 100%
growth at 0.01 µM (RPMI-8226 [9]): 102%
growth at 0.01 µM (MOLT-4 [10]): 104%
growth at 0.01 µM (HL-60(TB) [11]): 100%
GI50 (SK-OV-3; read-out: GI50): 18 µM
CC50 (SK-OV-3; [25]): > 100 µM
TGI (SK-OV-3; read-out: TGI): > 100 µM
GI50 (SK-OV-3; read-out: pGI50 (converted)): 18.2 µM
CC50 (SK-OV-3; [26]): > 100 µM
TGI (SK-OV-3; read-out: pTGI (converted)): > 100 µM
GI50 (OVCAR-8; read-out: GI50): 4.97 µM
CC50 (OVCAR-8; [25]): > 100 µM
TGI (OVCAR-8; read-out: TGI): > 100 µM
GI50 (OVCAR-8; read-out: pGI50 (converted)): 5.01 µM
CC50 (OVCAR-8; [26]): > 100 µM
TGI (OVCAR-8; read-out: pTGI (converted)): > 100 µM
GI50 (OVCAR-5; read-out: GI50): 18.3 µM
CC50 (OVCAR-5; [25]): > 100 µM
TGI (OVCAR-5; read-out: TGI): > 100 µM
GI50 (OVCAR-5; read-out: pGI50 (converted)): 18.2 µM
CC50 (OVCAR-5; [26]): > 100 µM
TGI (OVCAR-5; read-out: pTGI (converted)): > 100 µM
growth at 100 µM (SN12C [12]): 15%
growth at 100 µM (RXF 393): -15%
growth at 100 µM (SF-295): -6%
growth at 100 µM (SW-620 [13]): 22%
growth at 100 µM (KM12 [14]): 20%
growth at 100 µM (NCI-H460 [15]): 8%
growth at 100 µM (A549): 10%
growth at 100 µM (HL-60(TB) [16]): -38%
growth at 1 µM (SN12C [17]): 85%
growth at 1 µM (SK-MEL-28 [18]): 95%
growth at 1 µM (LOX IMVI): 92%
growth at 1 µM (SF-268 [19]): 98%
growth at 1 µM (NCI-H23): 97%
growth at 1 µM (HOP-62): 98%
growth at 0.1 µM (DU-145 [20]): 107%
growth at 0.1 µM [21]: 104%
growth at 0.1 µM (UACC-62): 85%
growth at 0.1 µM (MDA-MB-435): 95%
growth at 0.1 µM (NCI-H460 [22]): 98%
growth at 0.1 µM (RPMI-8226 [23]): 91%
growth at 0.01 µM (T47D): 99%
growth at 0.01 µM (DU-145 [24]): 104%
growth at 0.01 µM (OVCAR-4): 95%

From ChEMBL document CHEMBL2413072, “Synthesis and in vitro anticancer studies of novel C-2 arylidene congeners of lantadenes” (2013)
